{
  "source": "patent US20230365602A1",
  "about": "“COMPOUND FOR USE IN THE TREATMENT OF PROTOZOAL DISEASES AND PROCESS FOR PRODUCTION OF SAID COMPOUND” (QUADREL S.R.L., priority 2020, published 2023)",
  "key": {"Aurora B kinase": {"target": "Aurora B kinase (Homo sapiens, UniProt Q96GD4)", "sequence (Q96GD4 whole entry)": "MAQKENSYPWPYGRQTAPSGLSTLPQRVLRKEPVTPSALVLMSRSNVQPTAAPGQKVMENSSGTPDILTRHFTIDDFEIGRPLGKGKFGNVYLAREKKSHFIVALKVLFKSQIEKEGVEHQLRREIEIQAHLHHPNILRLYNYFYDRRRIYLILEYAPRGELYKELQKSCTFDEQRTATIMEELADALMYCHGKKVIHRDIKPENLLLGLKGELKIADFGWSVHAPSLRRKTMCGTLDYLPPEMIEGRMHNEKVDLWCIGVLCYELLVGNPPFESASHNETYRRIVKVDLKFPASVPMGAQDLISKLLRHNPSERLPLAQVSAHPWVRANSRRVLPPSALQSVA", "experiment": "Early toxicity: Aurora B kinase inhibition", "type": "biochemical", "details": "Table 5"}, "[1]": {"experiment": "Human microsomal stability", "type": "in vitro ADME", "procedure": "(§1) Furthermore, compound 19 is stable in human hepatic microsomes (samples were taken at 0, 5, 15, 30, 45 minutes) (Table 8), while the human plasma stability is 99.7% (samples were taken at 0, 15, 30, 45, 60, 120 minutes)."}, "Human plasma stability": {"experiment": "Human plasma stability", "type": "in vitro ADME", "details": "samples at 0, 15, 30, 45, 60, 120 minutes", "procedure": "as §1"}, "[2]": {"system": "Salmonella TA98 (frameshift mutations)", "type": "cell-based", "procedure": "(§2) The test has been performed in duplicate as separate experiments (Table 9). Two different Salmonella strains were tested; TA98 (frameshift mutations) and TA100 (base pair substitutions, primarily at one of the GC pairs). Values above 15 represent genotoxicity."}, "[3]": {"system": "Salmonella TA100 (base pair substitutions)", "experiment": "Ames mutagenicity testing, TA100", "type": "cell-based", "procedure": "as §2"}, "[4]": {"experiment": "Biodistribution in tissues 72 h after oral gavage", "type": "in vivo, mice", "details": "for Kp at 72 h / concentration at 72 h: BALB/c (Compound 19), NMRI (miltefosine), mouse; for Kp at 72 h: 72 h after 20 mg/kg oral gavage", "procedure": "Blood samples were collected from the tail vein at 0, 0.5, 0.75, 1, 3, 24 and 72 hours into heparinized tubes. Moreover, biodistribution of the molecule, 72h after administration, was determined in several organs of the treated mice, namely brain, liver, spleen, kidney, heart and bone marrow. […] J Chromatogr B, 865: 55-62) by liquid chromatography mass spectrometry (LC-MS/MS)."}, "[5]": {"system": "L. infantum axenic amastigotes expressing luciferase", "experiment": "In vivo model of infection with L. infantum axenic amastigotes expressing luciferase", "details": "ten consecutive oral treatments with 10 mg/kg, 2 weeks after last treatment", "procedure": "FIG. 4 illustrates the in vivo activity of compounds 18 and 19 in a model of infection with L. infantum axenic amastigotes expressing luciferase (10 consecutive treatments with 10 mg/kg of each compound, evaluated by limiting dilution assay 2 weeks after the last treatment).\nIn vivo activity of compounds 18 and 19 (ten consecutive oral treatments with 10 mg/kg of each compound, followed by a break of 2 weeks after last treatment), was studied in a model of infection with axenic amastigotes expressing luciferase, essentially as described in (Mendes Costa D. et al, J. Sci Rep. 2019 Dec. 12; 9(1):18989; Tavares J. et al., Methods Mol Biol. 2019; 1971:289-301). (FIG. 4)."}, "hERG channel": {"target": "hERG channel (Homo sapiens, UniProt Q12809)", "sequence (Q12809 whole entry)": "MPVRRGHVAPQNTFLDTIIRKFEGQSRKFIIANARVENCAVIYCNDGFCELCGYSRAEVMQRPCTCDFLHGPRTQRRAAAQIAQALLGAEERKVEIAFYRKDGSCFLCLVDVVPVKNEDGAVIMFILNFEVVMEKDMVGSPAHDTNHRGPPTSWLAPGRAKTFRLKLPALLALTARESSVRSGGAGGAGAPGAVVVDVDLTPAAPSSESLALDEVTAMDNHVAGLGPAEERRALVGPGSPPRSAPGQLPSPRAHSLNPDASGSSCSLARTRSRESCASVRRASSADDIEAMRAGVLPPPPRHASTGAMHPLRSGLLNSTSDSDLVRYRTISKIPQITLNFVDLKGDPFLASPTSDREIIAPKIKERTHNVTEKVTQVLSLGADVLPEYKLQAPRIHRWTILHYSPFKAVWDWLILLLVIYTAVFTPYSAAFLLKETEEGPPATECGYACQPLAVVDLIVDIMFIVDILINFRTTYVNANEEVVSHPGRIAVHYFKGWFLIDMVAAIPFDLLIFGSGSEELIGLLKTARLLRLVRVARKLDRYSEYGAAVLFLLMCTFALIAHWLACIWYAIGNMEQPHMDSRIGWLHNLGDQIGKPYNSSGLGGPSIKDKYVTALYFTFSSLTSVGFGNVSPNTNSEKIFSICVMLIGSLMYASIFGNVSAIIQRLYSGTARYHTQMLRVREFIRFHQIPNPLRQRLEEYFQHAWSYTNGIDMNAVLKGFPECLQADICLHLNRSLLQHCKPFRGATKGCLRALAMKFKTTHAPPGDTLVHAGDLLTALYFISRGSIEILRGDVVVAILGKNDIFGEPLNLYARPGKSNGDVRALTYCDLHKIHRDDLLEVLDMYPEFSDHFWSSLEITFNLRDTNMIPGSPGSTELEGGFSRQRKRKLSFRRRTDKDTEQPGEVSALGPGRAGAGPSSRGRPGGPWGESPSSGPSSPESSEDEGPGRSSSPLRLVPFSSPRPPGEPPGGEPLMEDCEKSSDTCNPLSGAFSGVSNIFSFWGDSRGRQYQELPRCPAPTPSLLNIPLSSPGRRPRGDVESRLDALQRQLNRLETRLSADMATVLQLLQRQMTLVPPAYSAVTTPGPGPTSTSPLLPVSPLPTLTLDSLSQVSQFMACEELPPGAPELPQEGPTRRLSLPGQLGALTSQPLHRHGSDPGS", "experiment": "Early toxicity: hERG inhibition"}},
  "note": "Like-named read-outs stand apart in the source and are kept apart here.",
  "data": [
    {"smiles": "C[N+](C)(C)CCOP(=O)([O-])OCCCCCC1CCCCCCCCCCCCCC1", "note": "[Compound 19, 5-cyclopentadecylpentyl (2-(trimethylammonio)ethyl) phosphate]", "values": [
      {"measurement": "inhibition at 10 µM", "setting": "Aurora B kinase", "value": "-9.92 ± 8.99", "unit": "%"},
      {"measurement": "Degradation non NADPH dependent (%)", "setting": "[1]; human microsomes", "value": 0, "unit": "%"},
      {"measurement": "Human microsomal Metabolic stability (%)", "setting": "[1]; samples at 0, 5, 15, 30, 45 minutes", "value": 100, "unit": "%"},
      {"measurement": "Human plasma Metabolic stability (%)", "setting": "Human plasma stability", "value": 99.7, "unit": "%"},
      {"measurement": "Ames mutagenicity TA98 (values above 15 represent genotoxicity)", "setting": "[2]; 3.125 μM", "value": "11.0 ± 8.48"},
      {"measurement": "Ames mutagenicity TA98 (values above 15 represent genotoxicity)", "setting": "[2]; 6.25 μM", "value": "13.0 ± 2.83"},
      {"measurement": "Ames mutagenicity TA98 (values above 15 represent genotoxicity)", "setting": "[2]; 12.5 μM", "value": "12.5 ± 4.95"},
      {"measurement": "Ames mutagenicity TA98 (values above 15 represent genotoxicity)", "setting": "[2]; 25 μM", "value": "6.5 ± 3.53"},
      {"measurement": "Ames mutagenicity TA98 (values above 15 represent genotoxicity)", "setting": "[2]; 50 μM", "value": "11 ± 2.82"},
      {"measurement": "Ames mutagenicity TA98 (values above 15 represent genotoxicity)", "setting": "[2]; 100 μM", "value": "11.0 ± 1.41"},
      {"measurement": "mutagenicity, TA98", "setting": "[2]; up to 100 μM", "value": "does not exhibit mutagenicity"},
      {"measurement": "Ames mutagenicity TA100 (values above 15 represent genotoxicity)", "setting": "[3]; 3.125 μM", "value": "7.5 ± 0.71"},
      {"measurement": "Ames mutagenicity TA100 (values above 15 represent genotoxicity)", "setting": "[3]; 6.25 μM", "value": "9.0 ± 0"},
      {"measurement": "Ames mutagenicity TA100 (values above 15 represent genotoxicity)", "setting": "[3]; 12.5 μM", "value": "14.0 ± 1.41"},
      {"measurement": "Ames mutagenicity TA100 (values above 15 represent genotoxicity)", "setting": "[3]; 25 μM", "value": "7.0 ± 2.83"},
      {"measurement": "Ames mutagenicity TA100 (values above 15 represent genotoxicity)", "setting": "[3]; 50 μM", "value": "10.0 ± 0"},
      {"measurement": "Ames mutagenicity TA100 (values above 15 represent genotoxicity)", "setting": "[3]; 100 μM", "value": "8.5 ± 4.95"},
      {"measurement": "mutagenicity, TA100", "setting": "[3]; up to 100 μM", "value": "does not exhibit mutagenicity"},
      {"measurement": "times less concentration in plasma than miltefosine", "setting": "[4]; 72 hours after 20 mg/kg oral gavage", "value": 6.5, "unit": "times"},
      {"measurement": "Kp at 72 h", "setting": "[4]; bone marrow, read-out: Tissue/Plasma ratio Bone marrow", "value": 0.09},
      {"measurement": "concentration at 72 h", "setting": "[4]; bone marrow, 72 hours after 20 mg/kg oral gavage, read-out: Bone marrow", "value": 200, "unit": "ng/g"},
      {"measurement": "Kp at 72 h", "setting": "[4]; brain, read-out: Tissue/Plasma ratio Brain", "value": 0.248},
      {"measurement": "concentration at 72 h", "setting": "[4]; brain, 72 hours after 20 mg/kg oral gavage, read-out: Brain", "value": "540 ± 610", "unit": "ng/g"},
      {"measurement": "Kp at 72 h", "setting": "[4]; heart, read-out: Tissue/Plasma ratio Heart", "value": 0.55},
      {"measurement": "concentration at 72 h", "setting": "[4]; heart, 72 hours after 20 mg/kg oral gavage, read-out: Heart", "value": "1200 ± 900", "unit": "ng/g"},
      {"measurement": "Kp at 72 h", "setting": "[4]; kidney, read-out: Tissue/Plasma ratio Kidney", "value": 18.9},
      {"measurement": "concentration at 72 h", "setting": "[4]; kidney, 72 hours after 20 mg/kg oral gavage, read-out: Kidney", "value": "41100 ± 15800", "unit": "ng/g"},
      {"measurement": "Kp at 72 h", "setting": "[4]; liver, read-out: Tissue/Plasma ratio Liver", "value": 5.36},
      {"measurement": "concentration at 72 h", "setting": "[4]; liver, 72 hours after 20 mg/kg oral gavage, read-out: Liver", "value": "11600 ± 880", "unit": "ng/g"},
      {"measurement": "concentration at 72 h", "setting": "[4]; plasma, 72 hours after 20 mg/kg oral gavage, read-out: Plasma", "value": "2170 ± 550", "unit": "ng/mL"},
      {"measurement": "Kp at 72 h", "setting": "[4]; spleen, read-out: Tissue/Plasma ratio Spleen", "value": 1.06},
      {"measurement": "concentration at 72 h", "setting": "[4]; spleen, 72 hours after 20 mg/kg oral gavage, read-out: Spleen", "value": "2310 ± 710", "unit": "ng/g"},
      {"measurement": "parasites in the bone marrow", "setting": "[5]", "value": "under the detection limit"},
      {"measurement": "Flag for Interference, hERG", "setting": "hERG channel; Table 4b", "value": "(no)"},
      {"measurement": "inhibition at 10 µM", "setting": "hERG channel; human", "value": "4.06 ± 2.07", "unit": "%"}
    ]}
  ]
}
